# Source: publication PMC2766634 (Journal of medicinal chemistry, 2009)
# Values joined by “and” are separate entries in the source; they are usually repeats but may differ in a detail not shown here. Equal values may be shown once. Marks after values point to notes of the source that are not given here.
# Columns and labels:
# [1] = Cyclic voltammetry in DMSO; assay type: physicochemical; details: for E1/2 in DMSO (half-wave potential, 0/−1 reduction), mean ± SE: cyclic voltammetry, 0.10 M NBu4PF6 in DMSO, 25 °C, 100 mV/s
# [2] = Cyclic voltammetry in water pH 7.0; assay type: physicochemical; details: pH 7.0 phosphate buffer, 0.1 M KCl, 25 °C
"E1/2 in DMSO (half-wave potential, 0/−1 reduction), mean ± SE [1]","Ep in water (peak potential), mean ± SE [2] [V vs SCE]","E1/2 more positive than Mz ([1]; in DMSO, relative to Mz)",SMILES
−1.487 ± 0.001 V vs Fc,–,–,"Cn1c([N+](=O)[O-])cnc1/C=C/c1ccc(OC(F)(F)F)cc1 [compound 21, 1-Methyl-5-nitro-2-{(E)-2-[4-(trifluoromethoxy)phenyl]vinyl}-1H-imidazole]"
−1.486 ± 0.004 V vs Fc,–,–,"Cn1c([N+](=O)[O-])cnc1/C=C/c1ccccc1Cl [compound 13, 2-[(E)-2-(2-Chlorophenyl)vinyl]-1-methyl-5-nitro-1H-imidazole]"
−1.557 ± 0.001 V vs Fc,–,–,"Cc1ccc(C(O)C(O)c2ncc([N+](=O)[O-])n2C)cc1 (centres unmarked) [compound 34, 1-(1-Methyl-5-nitro-1H-imidazol-2-yl)-2-(4-methylphenyl)-ethane-1,2-diol]"
−1.497 ± 0.005 V vs Fc,–,–,"Cn1c([N+](=O)[O-])cnc1/C=C/c1cccc(Br)c1 [compound 11, 2-[(E)-2-(3-Bromophenyl)vinyl]-1-methyl-5-nitro-1H-imidazole]"
−1.516 ± 0.001 V vs Fc,−0.635 ± 0.003,–,"Cc1cccc(/C=C/c2ncc([N+](=O)[O-])n2C)c1 [compound 7, 1-Methyl-2-[(E)-2-(3-methylphenyl)vinyl]-5-nitro-1H-imidazole]"
−1.593 ± 0.002 V vs Fc,–,–,"Cn1c([N+](=O)[O-])cnc1CCc1ccccc1 [compound 40, 1-Methyl-5-nitro-2-(2-phenylethyl)-1H-imidazole]"
−1.544 ± 0.001 V vs Fc,–,–,"Cn1c([N+](=O)[O-])cnc1C(O)C(O)c1ccc(Br)cc1 (centres unmarked) [compound 35, 1-(4-Bromophenyl)-2-(1-methyl-5-nitro-1H-imidazol-2-yl)-ethane-1,2-diol]"
−1.584 ± 0.005 V vs Fc,−0.757 ± 0.003,–,"COc1ccc(/C=C/c2ncc([N+](=O)[O-])n2C)c(OC)c1OC [compound 22, 1-Methyl-5-nitro-2-[(E)-2-(2,3,4-trimethoxyphenyl)vinyl]-1H-imidazole]"
−1.493 ^d ± 0.004 V vs Fc,–,–,"Cn1c([N+](=O)[O-])cnc1C(Br)C(Br)c1ccc(Br)cc1 (centres unmarked) [compound 33, 2-[1,2-Dibromo-2-(4-bromophenyl)ethyl]-1-methyl-5-nitro-1H-imidazole]"
−1.469 ± 0.002 V vs Fc,–,~ 90 mV,"Cn1c([N+](=O)[O-])cnc1/C=C/c1ccc(Cl)cc1Cl [compound 16, 2-[(E)-2-(2,4-Dichlorophenyl)vinyl]-1-methyl-5-nitro-1H-imidazole]"
−1.580 ± 0.007 V vs Fc,−0.763 ± 0.001,–,"COc1cccc(/C=C/c2ncc([N+](=O)[O-])n2C)c1 [compound 20, 2-[(E)-2-(3-Methoxyphenyl)vinyl]-1-methyl-5-nitro-1H-imidazole]"
−1.492 ± 0.002 V vs Fc,–,–,"Cn1c([N+](=O)[O-])cnc1/C=C/c1cccc(Cl)c1 [compound 14, 2-[(E)-2-(3-Chlorophenyl)vinyl]-1-methyl-5-nitro-1H-imidazole]"
−1.481 ± 0.001 V vs Fc,–,–,"Cn1c([N+](=O)[O-])cnc1/C=C/c1ccccc1Br [compound 10, 2-[(E)-2-(2-Bromophenyl)vinyl]-1-methyl-5-nitro-1H-imidazole]"
−1.592 ± 0.003 V vs Fc,–,–,"Cc1ccc(CCc2ncc([N+](=O)[O-])n2C)cc1 [compound 41, 1-Methyl-2-[2-(4-methylphenyl)ethyl]-5-nitro-1H-imidazole]"
−1.512 ± 0.001 V vs Fc,–,–,"Cn1c([N+](=O)[O-])cnc1/C=C/c1ccccc1-c1ccccc1 [compound 24, 2-[(E)-2-Biphenyl-2-ylvinyl]-1-methyl-5-nitro-1H-imidazole]"

SMILES,"E1/2 in DMSO (half-wave potential, 0/−1 reduction), mean ± SE [1]","Ep in water (peak potential), mean ± SE [2] [V vs SCE]","E1/2 more positive than Mz ([1]; in DMSO, relative to Mz)"
"Cn1cncc1[N+](=O)[O-] [1-methyl-5-NI, reference compound]",−1.557 V vs Fc and −1.557 ± 0.001 V vs Fc,–,–
